≈ marks a conversion by molar mass, not a printed value.
Tests used:
Serine protease hepsin = Serine protease hepsin (Homo sapiens, UniProt P05981); test: Inhibition of human recombinant hepsin by fluorescence based assay using 65 uM BOC-Gln-Arg-Arg -AMC as substrate
Coagulation factor X = Coagulation factor X (Bos taurus, UniProt P00743); test: Inhibition of bovine factor 10a by fluorescence based assay using CH3OCO-D-CHA-Gly-Arg-pNA.AcoH as substrate
Trypsin = Trypsin (Homo sapiens, UniProt P07477+P07478+P35030); test: Inhibition of human trypsin by fluorescence based assay using 25 uM Boc-Gln-Ala-Arg-7-amido-4-methyl coumarinhydrobromide as substrate; type: protein assay
[1] = target: T1, Suppressor of tumorigenicity 14 protein (Homo sapiens, UniProt Q9Y5Y6); test: Inhibition of human recombinant matriptase by fluorescence based assay using 20 uM Boc-Gln-Ala-Arg-7-amido-4-methyl coumarinhydrobromide as substrate
T1 sequence (Q9Y5Y6 whole entry): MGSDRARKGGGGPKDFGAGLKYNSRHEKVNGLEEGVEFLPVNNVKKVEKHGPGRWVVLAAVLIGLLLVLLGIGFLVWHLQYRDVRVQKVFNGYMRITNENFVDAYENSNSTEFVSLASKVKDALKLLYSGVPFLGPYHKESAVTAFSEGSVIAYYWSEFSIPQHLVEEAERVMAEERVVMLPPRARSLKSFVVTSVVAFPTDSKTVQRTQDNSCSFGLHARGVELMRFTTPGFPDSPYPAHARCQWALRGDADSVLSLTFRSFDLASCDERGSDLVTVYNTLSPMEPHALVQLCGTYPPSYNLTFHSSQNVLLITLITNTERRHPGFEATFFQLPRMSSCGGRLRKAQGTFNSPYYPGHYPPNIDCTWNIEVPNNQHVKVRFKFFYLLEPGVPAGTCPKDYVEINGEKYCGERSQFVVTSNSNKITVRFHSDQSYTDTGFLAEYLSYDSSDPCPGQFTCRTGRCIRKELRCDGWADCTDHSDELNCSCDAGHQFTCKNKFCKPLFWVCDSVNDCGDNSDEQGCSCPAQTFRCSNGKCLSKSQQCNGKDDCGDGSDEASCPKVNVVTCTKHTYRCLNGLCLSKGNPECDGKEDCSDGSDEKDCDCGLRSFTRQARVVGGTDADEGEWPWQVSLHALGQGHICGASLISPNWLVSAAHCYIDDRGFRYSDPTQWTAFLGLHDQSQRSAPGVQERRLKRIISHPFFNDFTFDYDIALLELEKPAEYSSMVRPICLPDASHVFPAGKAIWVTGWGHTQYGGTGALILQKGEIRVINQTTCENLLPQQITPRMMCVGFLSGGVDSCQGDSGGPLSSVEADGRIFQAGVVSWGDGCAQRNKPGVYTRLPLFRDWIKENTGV

[2] = Stability in mouse liver microsomes assessed as compound remaining at 1 uM after 20 mins by LC-MS/MS analysis; type: ADME; details: read-out: Stability
[3] = Stability in mouse liver microsomes assessed as compound remaining at 1 uM after 40 mins by LC-MS/MS analysis; type: ADME; details: read-out: Stability
[4] = Aqueous solubility of compound at pH 7.4 by HPLC-UV/Vis analysis; type: physicochemical; details: aqueous medium
PC-3 [5] = test: Antimigratory activity in human PC3 cells by transwell-chamber assay; type: functional, cell-based
[6] = Antimigratory activity in human LNCaP-C42B4 cells by transwell-chamber assay; type: functional, cell-based
PC-3 [7] = test: Cytotoxicity against human PC3 cells at 10 uM after 72 hrs by calcein AM assay; type: cell-based; details: pc-3, 72 h
[8] = Cytotoxicity against human LNCaP-C42B4 cells at 10 uM after 72 hrs by calcein AM assay; type: cell-based; details: lncap-c42b4, 72 h
[9] = target: Urokinase-type plasminogen activator (Homo sapiens, UniProt P00749); test: Inhibition of human uPA by fluorescence based assay using L-PyroGlu-Gly-Arg-pNA.HCl as substrate
Prothrombin = Prothrombin (Homo sapiens, UniProt P00734); test: Inhibition of human thrombin by fluorescence based assay using 100 uM Boc-Gln-Ala-Arg-7-amido-4-methyl coumarinhydrobromide as substrate
[10] = target: Plasminogen (Homo sapiens) (UniProt P00747); test: Inhibition of human plasmin at 5 uM by fluorescence based assay using pyroGlu-Phe-Lys-pNA.HCl as substrate
Plasminogen (Homo sapiens), sequence (P00747 97-580 limits assumed): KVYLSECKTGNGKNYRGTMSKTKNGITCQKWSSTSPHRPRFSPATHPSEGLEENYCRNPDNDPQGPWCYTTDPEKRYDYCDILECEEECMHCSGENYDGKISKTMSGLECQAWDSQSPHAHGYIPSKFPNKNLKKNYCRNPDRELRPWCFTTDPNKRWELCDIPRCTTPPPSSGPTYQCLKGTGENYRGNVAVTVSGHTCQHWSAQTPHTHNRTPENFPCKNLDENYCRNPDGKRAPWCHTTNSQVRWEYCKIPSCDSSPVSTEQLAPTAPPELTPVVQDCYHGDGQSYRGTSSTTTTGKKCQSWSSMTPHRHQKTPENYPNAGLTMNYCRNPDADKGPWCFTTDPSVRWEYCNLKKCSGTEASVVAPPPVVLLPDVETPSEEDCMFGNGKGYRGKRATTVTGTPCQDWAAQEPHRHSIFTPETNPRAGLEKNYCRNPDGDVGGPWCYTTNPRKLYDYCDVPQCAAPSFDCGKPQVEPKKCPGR
Plasminogen (Homo sapiens), sequence (P00747 581-810 limits assumed): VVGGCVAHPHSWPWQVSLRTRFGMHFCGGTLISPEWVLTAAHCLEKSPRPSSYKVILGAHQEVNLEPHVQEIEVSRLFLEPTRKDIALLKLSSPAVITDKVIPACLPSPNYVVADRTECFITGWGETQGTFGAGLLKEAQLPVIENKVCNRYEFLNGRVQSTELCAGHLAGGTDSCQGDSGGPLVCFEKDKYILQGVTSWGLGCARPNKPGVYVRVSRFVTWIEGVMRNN

PC-3 [11] = test: Antinvasive activity in human PC3 cells by matrigel assay; type: functional, cell-based
[12] = Antinvasive activity in human LNCaP-C42B4 cells by matrigel assay; type: functional, cell-based

Coagulation factor X, sequence (P00743 41-180 limits assumed): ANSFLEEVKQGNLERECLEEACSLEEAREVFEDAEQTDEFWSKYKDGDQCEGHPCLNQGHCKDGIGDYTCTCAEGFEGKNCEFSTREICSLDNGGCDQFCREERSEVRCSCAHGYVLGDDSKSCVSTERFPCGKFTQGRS
Coagulation factor X, sequence (P00743 234-492 limits assumed): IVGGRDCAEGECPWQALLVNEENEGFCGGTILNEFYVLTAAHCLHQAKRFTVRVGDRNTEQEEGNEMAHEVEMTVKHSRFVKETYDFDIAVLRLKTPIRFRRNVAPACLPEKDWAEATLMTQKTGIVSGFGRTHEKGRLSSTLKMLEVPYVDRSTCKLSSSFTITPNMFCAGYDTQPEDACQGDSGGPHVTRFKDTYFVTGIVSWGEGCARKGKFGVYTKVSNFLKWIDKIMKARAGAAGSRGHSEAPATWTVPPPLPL
Serine protease hepsin, sequence (P05981 1-162 limits assumed): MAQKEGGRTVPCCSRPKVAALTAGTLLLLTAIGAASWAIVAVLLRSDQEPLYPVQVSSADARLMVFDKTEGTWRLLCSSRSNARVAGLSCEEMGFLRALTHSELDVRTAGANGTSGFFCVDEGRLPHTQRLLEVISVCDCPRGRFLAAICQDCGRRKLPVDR
Serine protease hepsin, sequence (P05981 163-417 limits assumed): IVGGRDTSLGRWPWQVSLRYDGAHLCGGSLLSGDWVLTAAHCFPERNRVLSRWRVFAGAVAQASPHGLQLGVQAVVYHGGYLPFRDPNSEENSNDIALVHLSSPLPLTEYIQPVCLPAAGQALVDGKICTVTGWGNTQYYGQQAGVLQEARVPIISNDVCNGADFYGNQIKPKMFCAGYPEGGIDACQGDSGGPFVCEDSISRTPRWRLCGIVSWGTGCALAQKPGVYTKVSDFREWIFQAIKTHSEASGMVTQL

SMILES: N=C(N)c1ccc2[nH]ccc2c1
- Ki (Serine protease hepsin): 500 µM

SMILES: N=C(N)c1ccc2[nH]c(-c3ccccc3O)nc2c1
- Ki (Serine protease hepsin): 40 µM
- Ki (Coagulation factor X): 14 µM
- Ki (Trypsin): 23 µM

SMILES: N=C(N)c1ccc2[nH]c(-c3cccc(N4CCCCC4)c3O)cc2c1
- Ki (Serine protease hepsin): 1.4 µM
- Ki [1]: 0.5 µM
- remaining at 20 min, 1 µM [2]: 38%
- remaining at 40 min, 1 µM [3]: 22%
- solubility [4]: 126 µM (≈ 42.1 µg/mL)
- EC50 (PC-3 [5]): 4.9 µM
- EC50 [6]: 4.2 µM
- Activity (PC-3 [7]): 22%
- Activity [8]: 18%

SMILES: N=C(N)c1ccc2[nH]c(-c3cccc(C4(O)CCCCC4)[n+]3[O-])cc2c1
- Ki (Serine protease hepsin): 0.1 µM
- Ki [1]: 1.1 µM
- Ki [9]: 7.8 µM
- Ki (Coagulation factor X): 8.2 µM
- Ki (Prothrombin): 8.6 µM
- inhibition [10]: 11%
- Ki (Trypsin): 0.8 µM
- remaining at 20 min, 1 µM [2]: 100%
- remaining at 40 min, 1 µM [3]: 99%
- solubility [4]: 200 µM (≈ 70.1 µg/mL)
- EC50 (PC-3 [5]): 1.8 µM
- EC50 (PC-3 [11]): 2.1 µM
- EC50 [6]: 0.6 µM
- EC50 [12]: 0.5 µM
- Activity (PC-3 [7]): 8%
- Activity [8]: 1%

SMILES: CC(C)c1cc(Cl)cc(-c2cc3cc(C(=N)N)ccc3[nH]2)c1O
- Ki (Serine protease hepsin): 4.8 µM
- Ki [1]: 4.8 µM
- inhibition [10]: 5%

SMILES: N=C(N)c1ccc2[nH]c(-c3cccc(C4(F)CCCCC4)n3)cc2c1
- Ki (Serine protease hepsin): 0.4 µM
- Ki [1]: 0.8 µM
- Ki [9]: 2.7 µM
- Ki (Coagulation factor X): 0.7 µM
- Ki (Prothrombin): 3.6 µM
- inhibition [10]: 11%
- Ki (Trypsin): 0.5 µM

SMILES: N=C(N)c1ccc2[nH]c(-c3ccccc3O)cc2c1
- Ki (Serine protease hepsin): 35 µM
- Ki [1]: 60 µM
- Ki (Trypsin): 8 µM

SMILES: N=C(N)c1ccc2[nH]c(-c3cccc(C4(O)CCCCC4)n3)cc2c1
- Ki (Serine protease hepsin): 0.1 µM
- Ki [1]: 2.1 µM
- Ki [9]: 1.3 µM
- Ki (Coagulation factor X): 1.4 µM
- Ki (Prothrombin): 2.1 µM
- inhibition [10]: 24%
- Ki (Trypsin): 0.4 µM
- remaining at 20 min, 1 µM [2]: 86%
- remaining at 40 min, 1 µM [3]: 64%
- solubility [4]: 148 µM (≈ 49.5 µg/mL)
- EC50 (PC-3 [5]): 2.6 µM
- EC50 (PC-3 [11]): 3.5 µM
- EC50 [6]: 0.9 µM
- EC50 [12]: 0.6 µM
- Activity (PC-3 [7]): 10%
- Activity [8]: 8%

SMILES: CC(C)c1cccc(-c2cc3cc(C(=N)N)ccc3[nH]2)c1O
- Ki (Serine protease hepsin): 4.9 µM
- Ki [1]: 4.4 µM
- Ki (Coagulation factor X): 1 µM
- Ki (Prothrombin): 1.9 µM
- Ki (Trypsin): 0.8 µM

SMILES: N=C(N)c1ccc2[nH]c(-c3cccc(N4CCCCC4)n3)cc2c1
- Ki (Serine protease hepsin): 0.6 µM
- Ki [1]: 1.5 µM
- Ki [9]: 2.3 µM
- remaining at 20 min, 1 µM [2]: 82%
- remaining at 40 min, 1 µM [3]: 60%
- solubility [4]: 135 µM (≈ 43.1 µg/mL)
- EC50 (PC-3 [5]): 5.2 µM
- EC50 [6]: 2.6 µM
- Activity (PC-3 [7]): 10%
- Activity [8]: 12%

— ChEMBL document CHEMBL3632605, “Structure-guided discovery of 2-aryl/pyridin-2-yl-1H-indole derivatives as potent and selective hepsin inhibitors” (Bioorg Med Chem Lett, 2015)
